# Where two headings read alike, the source gives them in different places.
# Key:
# [1] = test system: L. donovani MHOM/IN/80/DD8 intracellular amastigotes; experiment: Leishmania donovani intracellular amastigote assay in THP-1 cells; assay type: cell-based; settings: reference compound set, IA = inactive at 20 μM
# [2] = test system: NF54-pfs16-LUC-GFP stage IV gametocytes; experiment: Plasmodium falciparum late stage gametocyte (LSG) image-based assay; assay type: cell-based
# [3] = test system: T. b. brucei 427 bloodstream trypanosomes; experiment: T. b. brucei resazurin viability assay; assay type: cell-based, Trypanosoma brucei brucei
# [4] = test system: T. cruzi intracellular amastigotes; experiment: Intracellular anti-Trypanosoma cruzi image-based assay (amastigotes); assay type: cell-based
# [5] = test system: Plasmodium falciparum 3D7 asexual blood stage; settings: for screening concentrations at which red blood cell (RBC) lysis was witnessed: human
# HEK293 cells = experiment: HEK293 resazurin cell cytotoxicity assay
# 3T3 host cells = experiment: T. cruzi assay, activity against 3T3 host cells; assay type: cell-based; settings: reference compound set; IA = inactive at 16.4 μM
# Method: page 4: […] Puromycin, 71 chloroquine, artesunate, DHA, pyronaridine and pyrimethamine were also tested in 72 IC50 format to act as internal reference compounds. 73 74 Intracellular anti-Trypanosoma cruzi Assay Protocol 75 The host cell cytoplasm, in which the parasite resides, is identified by the fluorescent 76 marker, HCS CellMask Green. Parasite and host cell nuclei are detected with the 77 fluorescent DNA intercalator, Hoechst 33342. The Opera® High Content Screening 78 System is used to take images of wells and a spot detection algorithm is used to 79 identify parasites within the cytoplasm. 80 81 Briefly, 1x 10^3 3T3 cells were added to collagen coated 384-well plates and following 82 24 hrs incubation at 37 °C, a multiplicity of infection (MOI) of 5:1 parasite: host cells 83 were added to the plate using a Multidrop liquid handler. Following additional 24 hrs 84 incubation, extracellular parasites were washed from the plates and RPMI with no […] 86 added to all wells. The final volume of media in the primary screening assay, before 87 addition of compound, was modified slightly to 55 µL. One µL of compounds, provided 88 by Compounds Australia, were diluted by the addition of 25 µL of sterile water. This […] 91 donovani). Five microliters of this dilution was added to assay plates. The final […] The final concentrations of compounds in the […] Following 48 hrs incubation in the presence 97 of compounds, wells were fixed, stained and read on the Opera® High Content 98 Screening System to assess compound activity. 99 The Z′-factor, as a measure of assay reproducibility, was determined from a plate […] The positive control used to calculate activity against […] To 103 assess the sensitivity of the T. cruzi assay, activity of the reference compounds 104 benznidazole, NFX, posaconazole and puromycin were determined. […] 108 resazurin as a measure of parasite viability. 109 T. b. brucei trypanosomes were cultured in vitro in HM1-9 medium supplemented with […] Fifty-five µL of logarithmic phase […] 112 incubated for 24 hrs at 37°C /5% CO2. Compounds were subsequently added to the […] Following […] 116 37°C / 5% CO2 followed by 22 hrs at room temperature. […] The percent
# [6] = test system: P. falciparum stage V gametocytes; settings: cited from earlier work; for IC50: stage V gametocytes, ref PBox supporting information, read-out: PF stage V GAMS PBox IC50
# liver stage = settings: ref Pbox supporting information; cited from earlier work
# P. falciparum ABS = settings: cited from earlier work
# infected PMM = test system: infected PMM; set-up: method as in Pbox supporting information; settings: ref Pbox supporting information, read-out: Toxicity on infected PMM Pbox IC50; cited from earlier work
# [7] = test system: L. donovani (macrophages); set-up: method as in Pbox supporting information; settings: ref Pbox supporting information; cited from earlier work
# [8] = test system: T. cruzi C4 β-galactosidase reporter parasite in MRC 5SV2 host cells; settings: ref Pbox supporting information; read-out: T. cruzi Pbox IC50; cited from earlier work
# [9] = test system: L. infanium (macrophages); set-up: method as in Pbox supporting information; settings: ref Pbox supporting information; cited from earlier work
# T. brucei brucei = settings: ref Pbox supporting information; read-out: T.b. brucei Pbox IC50; cited from earlier work
# [10] = test system: L. donovani axenic amastigotes; set-up: method as in PBox supporting information; settings: ref PBox supporting information; cited from earlier work
# HepG2 = settings: ref PBox supporting information, cited from earlier work; for CC50: read-out: HepG2 PBox CC50 µM
# T. brucei rhodesiense = settings: ref Pbox supporting information; read-out: T .b. rohdensie Pbox IC50; cited from earlier work
# [11] = test system: Plasmodium falciparum 3D7 asexual blood stage; experiment: microbe, parasite or virus in culture
# [12] = read-out: IC50 L. donovani n = 1, first test
# [13] = read-out: IC50 L. donovani n = 2, second test
# [14] = reference compound set, 11-point dose response, IA = inactive at 20 μM, read-out: IC50 P. falciparum NF54 LSG
# [15] = reference compound set, IA = inactive at 20 μM, read-out: IC50 T. brucei brucei trypomastigotes
# [16] = reference compound set, IA = inactive at 16.4 μM, read-out: IC50 T. cruzi intracellular amastigotes
# [17] = read-out: IC50 P. falciparum 3D7 ABS, reference compound set, 11-point dose response, IA = inactive at 20 μM
# [18] = 3D7, read-out: Antiplasmodial IC50 (ABS), PBox compounds, P. falciparum 3D7
# [19] = Homo sapiens, HEK293, read-out: HEK % Inhibition 20uM/IC50 Discovery Biology (IA)
# [20] = P. falciparum 3D7, ref PBox supporting information, read-out: Pf 3D7 Pbox IC50
structure (smiles),measurement,setting,value
"CC(=O)OC[C@H]1O[C@@H]([S-])[C@H](OC(C)=O)[C@@H](OC(C)=O)[C@@H]1OC(C)=O.CCP(CC)CC.[Au+] [Auranofin, reference compound]",IC50,[1]; [12],0.63 µM
same,IC50,[1]; [13],2 µM
same,IC50,[2]; [14],0.55 µM
same,IC50,[3]; [15],0.24 µM
same,IC50,[4]; [16],3.02 µM
same,IC50,[5]; [17],0.7 µM
same,IC50,"HEK293 cells; read-out: IC50 mammalian cell cytotoxicity HEK293, reference compound set",2.2 µM
same,IC50,3T3 host cells,4.9 µM
"C[C@H]1COc2c(N3CCN(C)CC3)c(F)cc3c(=O)c(C(=O)O)cn1c23 [Levofloxacin (–)-ofloxacin, reference compound]",IC50,[1]; [12],> 20 µM
same,IC50,[1]; [13],> 20 µM
same,IC50,[2]; [14],> 20 µM
same,IC50,[3]; [15],> 20 µM
same,IC50,[4]; [16],> 16.4 µM
same,IC50,[5]; [17],> 20 µM
same,IC50,3T3 host cells,> 16.4 µM
Cc1ccc(-c2cc(C(=O)Nc3cccnc3)c3cc(Br)ccc3n2)cc1 [MMV016838],"activity against gametocytes (stage V), PBox supporting information",[6]; ref Pbox supporting information,known to be active
same,activity in the Discovery Biology stage IV gametocyte (LSG) assay,[2],not to be active
same,activity in the Discovery Biology ABS assay,[5],not to be active
same,"activity against liver stage, PBox supporting information",liver stage,known to be active
same,IC50,"P. falciparum ABS; Pf 3D7, ref Pathogen Box supporting information, read-out: Pf 3D7 Pbox IC50",0.1 µM
c1ccc(Oc2ccc(-c3cc(N4CCOCC4)[nH]n3)cc2)cc1 [MMV045105],IC50,infected PMM,> 30 µM
same,IC50,[7],> 30 µM
same,IC50,[8],16 µM
same,IC50,[9],21.5 µM
same,IC50,T. brucei brucei,3.45 µM
same,IC50,[10],3.87 µM
same,HepG2 PBox CC20,HepG2,7.5 µM
same,IC50,T. brucei rhodesiense,1.29 µM
Cc1nc(-c2ccccn2)nc(NCCc2ccc(S(C)(=O)=O)cc2)c1Cl [MMV658993],IC50,infected PMM,30 µM
same,IC50,[7],> 30 µM
same,IC50,[8],4.44 µM
same,IC50,[9],> 32 µM
same,IC50,T. brucei brucei,> 32 µM
same,IC50,[10],2.05 µM
same,HepG2 PBox CC20,HepG2,27.9 µM
same,IC50,T. brucei rhodesiense,> 32 µM
COc1ccc(OC)c(NCc2ccc3nc(N)nc(N)c3c2Cl)c1 [MMV675968],IC50,"[3]; Trypanosoma brucei, read-out: T b.brucei Discovery Biology IC50",2.07 µM
same,IC50,"[4]; Trypanosoma cruzi, intracellular amastigotes, read-out: T cruzi Discovery Biology IC50",1.33 µM
same,SI HEK (P. falciparum 3D7),[5]; HEK293,7.4
same,SI HepG2 (P. falciparum 3D7),[5]; HEPG2 (PBox data),113
same,IC50,"HEK293 cells; Homo sapiens, HEK293, read-out: HEK % Discovery Biology IC50",0.221 µM
same,IC50,[11]; [18],0.03 µM
same,IC50,"[11]; 3D7, read-out: Pf 3D7 Discovery Biology IC50, P. falciparum 3D7 asexual blood stage",0.033 µM
same,HepG2 PBox CC20,HepG2,3.4 µM
N#CCN(CCCCN1CCN(c2ccc(F)cc2)CC1)C(=O)OCc1ccccc1 [MMV675997],IC50,infected PMM,> 30 µM
same,IC50,[7],22.2 µM
same,IC50,[8],4.62 µM
same,IC50,[9],25.4 µM
same,IC50,T. brucei brucei,24.9 µM
same,IC50,[10],> 100 µM
same,IC50,T. brucei rhodesiense,16.4 µM
O=C(Nc1c(O)cccc1-c1nc2c(C(=O)O)cccc2o1)c1cc(-c2ccccc2)on1 [MMV676008],IC50,infected PMM,> 30 µM
same,IC50,[7],> 30 µM
same,IC50,[8],> 32 µM
same,IC50,[9],> 32 µM
same,IC50,T. brucei brucei,> 32 µM
same,IC50,[10],0.57 µM
same,HepG2 PBox CC20,HepG2,5.7 µM
same,IC50,T. brucei rhodesiense,> 32 µM
Clc1cccc(CO[C@H]2CCc3ccccc3[C@@H]2n2ccnn2)c1 [MMV676159],IC50,infected PMM,> 30 µM
same,IC50,[7],> 30 µM
same,IC50,[8],3.08 µM
same,IC50,[9],> 32 µM
same,IC50,T. brucei brucei,> 32 µM
same,IC50,[10],6.6 µM
same,HepG2 PBox CC20,HepG2,>80 µM
same,IC50,T. brucei rhodesiense,> 32 µM
C[C@H](C(N)=O)N1CCCC[C@@H]1c1ccc(OCc2cccc(F)c2)cc1 [MMV676270],activity in the Discovery Biology stage IV gametocyte (LSG) assay,[2],no activity
same,activity in the Discovery Biology ABS assay,[5],no activity
same,IC50,HEK293 cells; [19],> 20 µM
same,IC50,liver stage,1.77 µM
same,EC50,"P. falciparum ABS; ChEMBL Data, P. falciparum, read-out: TCMDC (ref 93) EX50",0.99 µM
same,IC50,P. falciparum ABS; read-out: literature ABS activity,0.99 µM
same,CC50,HepG2,> 10 µM
Cc1cnc(N2CCN[C@@H](Cc3ccccc3)C2)nc1Oc1ccc(-n2ccnc2)cc1 [MMV687765],IC50,"[2]; Plasmodium falciparum, NF54, read-out: Pf Stage IV GAMS Discovery Biology IC50 µM, stage IV gametocytes, Discovery Biology",4.28 µM
same,IC50,"[5]; read-out: Antiplasmodial IC50 (ABS), PBox compounds, P. falciparum 3D7",2.01 µM
same,IC50,[11]; [18],2 µM
same,IC50,"[11]; 3D7, read-out: activity against P. falciparum (novel antiplasmodial actives of the tuberculosis set)",< 2 µM
same,CC50,HepG2; HepG2 cytotoxicity,14.1 µM
CCc1ccc(C(NCc2nc(N)nc(N(C)C)n2)C(C)C)cc1 (centres unmarked) [MMV1019989],IC50,[6],0.076 µM
same,screening concentrations at which red blood cell (RBC) lysis was witnessed,[5],≥ 2 µM
same,IC50,HEK293 cells; [19],> 20 µM
same,IC50,P. falciparum ABS; [20],> 2 µM
CNC(=O)CNc1nc(-c2ccccn2)nc2scc(-c3ccccc3)c12 [MMV1029203],IC50,[6],0.84 µM
same,screening concentrations at which red blood cell (RBC) lysis was witnessed,[5],≥ 2 µM
same,IC50,HEK293 cells; [19],> 20 µM
same,IC50,P. falciparum ABS; [20],> 2 µM
CCNC(=O)C(C)Nc1nc(-c2cccnc2)nc2sc(C)c(C)c12 (centres unmarked) [MMV1037162],IC50,[6],0.61 µM
same,screening concentrations at which red blood cell (RBC) lysis was witnessed,[5],≥ 2 µM
same,IC50,HEK293 cells; [19],> 20 µM
same,IC50,P. falciparum ABS; [20],> 2 µM
"NCCC[C@](N)(C(=O)O)C(F)F [α-Difluoromethylornithine, reference compound]",IC50,[1]; [12],> 20 µM
same,IC50,[1]; [13],> 20 µM
same,IC50,[2]; [14],> 20 µM
same,IC50,[3]; [15],> 20 µM
same,IC50,[4]; [16],> 16.4 µM
same,IC50,[5]; read-out: IC50 P. falciparum 3D7 ABS,> 20 µM
same,IC50,3T3 host cells,> 16.4 µM

# From paper PMC5571359, “Screening the Medicines for Malaria Venture Pathogen Box across Multiple Pathogens Reclassifies Starting Points for Open-Source Drug Discovery” (Antimicrobial Agents and Chemotherapy, 2017)
